Experimental data reported in patent publication US20200110072A1, “IMAGING METHODS TO ASSESS THE EFFICACY OF ANTICANCER DRUGS IN VITRO USING SPONTANEOUSLY-FORMING SPHEROIDS” (ROWAN UNIVERSITY, priority 2016, published 2020).
Entries after “also recorded” stand apart in the source; their conditions may differ.

Experiments:
spheroids^MARY-X [1] = test: Spheroids^MARY-X drug screen: bright-field image analysis of spheroid dissolution (dissolution indices); type: cell-based, human; details: for Response (deviation from well-circumscribed spheroid edge / spheroid dissolution): increasing doses, bright-field images
Method: In particular, the invention provides novel methods for determining drug response and calculating drug potency. In drug screens according to the invention spheroids or spheroids^MARY-X are seeded in multi-well plates, treated with vehicle only (control) and increasing doses of one or more drugs of interest. Following a 24-hr treatment period each well undergoes analysis to assess dissolution of the spheroids^MARY-X (see FIGS. 4A and 4B).
In exemplary embodiments the dissolution index is determined by applying an image analysis program on ImageJ that measures the circularity of an object's area and perimeter where ‘1’ signifies a perfect circle (i.e. intact spheroid) and numbers approaching ‘0’ signify loss of circularity (i.e. dissolute spheroid). Note that ‘0’ signifies a straight line and can never be achieved in image analysis of spheroids given the innate circularity of individual cells (see FIG. 4A). The induction of apoptosis correlates with the loss of well-circumscribed edges of the usually tight, compact spheroids, i.e. dissolution is consistent with cell death of the spheroid/embolus.
Spheroids^MARY-X Dissolution Indices: The spheroid dissolution index was determined by applying an image analysis program on ImageJ that measures the circularity of an object's area and perimeter where ‘1’ signifies a perfect circle (i.e. intact spheroid) and numbers approaching ‘0’ signify loss of circularity (i.e. dissolute spheroid). Note that ‘0’ signifies a straight line and can never be achieved in image analysis of spheroids given the innate circularity of individual cells.
Drug Screen: The 40-100 μm spheroids were distributed in equal number (˜30-50 spheroids/well) to a multi-well plate. The spheroids^MARY-X was treated with vehicle only (DMSO) and increasing doses of drug of interest in each 24-well plate. Following 24 hr treatment periods each well was imaged and analyzed with ImageJ for measurement of dissolution of the spheroids^MARY-X. The induction of apoptosis is correlated with the loss of the well circumscribed edges of the usually tight, compact spheroids^MARY-X i.e. dissolution is consistent with cell death of the spheroid/embolus.

spheroids^MARY-X [2] = test: Spheroids^MARY-X dual-fluorescence viability assay (acridine orange / propidium iodide, Cellometer K2); type: cell-based, human; details: 24-hour treatment; for Response in dual fluorescence viability assay: AO/PI staining; for IC50: Homo sapiens, AO/PI, read-out: IC50 from dose-response curve, dual fluorescence viability assay
Method: Spheroids^MARY-X Viability Assay: Dual-fluorescent assays were performed on a Cellometer K2 (Nexcelom Biosciences, Lawrence, Mass.) using the viability stains, acridine orange and propium iodide.
Dissolution indices vs. standard viability assay: In an effort to validate response data acquired by image analysis (i.e. dissolution indices) an alternate method, traditionally used to determine and quantify cell viability, and was performed on a replicate drug screen. This drug screen reproduced drug dose parameters of paclitaxel (PTX), gambogic acid (GA) and MAD28. Viability was measured by dual fluorescence analysis of propidium iodide (PI) and acridine orange (AO). Following the 24-hour treatment period, spheroids^MARY-X were analyzed using the Cellometer K2 in the dual-fluorescence viability assay. The nuclear stains AO and PI were added to the control (vehicle only) and treated spheroids^MARY-X, where AO stains both live and dead (green) cells and PI stains only dead (orange) cells with compromised membranes. Fluorescent images presented here are one of eight random fields captured for the viability analyses.

[3] = test system: triple-negative breast cancer 2-D culture models; details: preclinical analysis; cited from earlier work

CC(C)C[C@H](NC(=O)[C@H](Cc1ccccc1)NC(=O)c1cnccn1)B(O)O [Bortezomib, bortezomib]
Response (deviation from well-circumscribed spheroid edge / spheroid dissolution) (spheroids^MARY-X [1]; 24-hour treatment): Low - Moderate | Response (deviation from well-circumscribed spheroid edge / spheroid dissolution) (spheroids^MARY-X [1]; 24-hour treatment, listed as bortexomib): Low to moderate | Response (deviation from well-circumscribed spheroid edge / spheroid dissolution) (spheroids^MARY-X [1]; 24-hour treatment, listed as bortezomab): slight response | Response (deviation from well-circumscribed spheroid edge / spheroid dissolution) (spheroids^MARY-X [1]; 24-hour treatment, listed as bortezomib): slight response; also recorded: low response

N.N.[Cl][Pt][Cl] [Cisplatin, cisplatin]
Response (deviation from well-circumscribed spheroid edge / spheroid dissolution) (spheroids^MARY-X [1]; 24-hour treatment): No | Response (deviation from well-circumscribed spheroid edge / spheroid dissolution) (spheroids^MARY-X [1]; 24-hour treatment, listed as cisplatin): no drug response

COc1cccc2c1C(=O)c1c(O)c3c(c(O)c1C2=O)C[C@@](O)(C(=O)CO)C[C@@H]3O[C@H]1C[C@H](N)[C@H](O)[C@H](C)O1 [Doxorubicin, doxorubicin]
Response (deviation from well-circumscribed spheroid edge / spheroid dissolution) (spheroids^MARY-X [1]; 24-hour treatment): mixed response | Response (deviation from well-circumscribed spheroid edge / spheroid dissolution) (spheroids^MARY-X [1]; 24-hour treatment, listed as Doxorubicin (DOX)): Moderate - Complete

CC(C)=CCC[C@]1(C)C=Cc2c(O)c3c(c(CC=C(C)C)c2O1)O[C@]12C(=C[C@@H]4C[C@H]1C(C)(C)O[C@@]2(C/C=C(/C)C(=O)O)C4=O)C3=O [Gambogic acid]
Response in dual fluorescence viability assay (spheroids^MARY-X [2]): complete | Response in dual fluorescence viability assay (spheroids^MARY-X [2]; listed as GA): complete response | IC50 (spheroids^MARY-X [2]): 1.2 µM | Response (deviation from well-circumscribed spheroid edge / spheroid dissolution) (spheroids^MARY-X [1]; 24-hour treatment): complete | IC50 (spheroids^MARY-X [1]; Homo sapiens, as printed in b33 for gambogic acid, read-out: IC50, spheroidal dissolution and apoptosis): 0.54 µM | IC50 (spheroids^MARY-X [1]; Homo sapiens, read-out: IC50 from dissolution indices): 0.54 µM | Response (spheroid dissolution) (spheroids^MARY-X [1]; at 2.5 μM concentration (MAD44: similar concentrations)): complete spheroid dissolution

CS(=O)(=O)CCNCc1ccc(-c2ccc3ncnc(Nc4ccc(OCc5cccc(F)c5)c(Cl)c4)c3c2)o1 [Lapatinib, lapatinib]
Response (deviation from well-circumscribed spheroid edge / spheroid dissolution) (spheroids^MARY-X [1]; 24-hour treatment): Low - Moderate | Response (deviation from well-circumscribed spheroid edge / spheroid dissolution) (spheroids^MARY-X [1]; 24-hour treatment, listed as lapatinib): Low to moderate; also recorded: slight response; also recorded: low response

CN(Cc1cnc2nc(N)nc(N)c2n1)c1ccc(C(=O)N[C@@H](CCC(=O)O)C(=O)O)cc1 [Methotrexate, methotrexate]
Response (deviation from well-circumscribed spheroid edge / spheroid dissolution) (spheroids^MARY-X [1]; 24-hour treatment): no response and No | Response (deviation from well-circumscribed spheroid edge / spheroid dissolution) (spheroids^MARY-X [1]; 24-hour treatment, listed as methotrexate): no drug response

CC(C)NCCCn1c(Sc2cc3c(cc2I)OCO3)nc2c(N)ncnc21 [PU-H71]
Response (deviation from well-circumscribed spheroid edge / spheroid dissolution) (spheroids^MARY-X [1]; 24-hour treatment): no response | Response [3]: complete response

CC(=O)O[C@H]1C(=O)[C@@]2(C)[C@H]([C@H](OC(=O)c3ccccc3)[C@]3(O)C[C@H](OC(=O)[C@H](O)[C@@H](NC(=O)c4ccccc4)c4ccccc4)C(C)=C1C3(C)C)[C@]1(OC(C)=O)CO[C@@H]1C[C@@H]2O [Paclitaxel, paclitaxel]
Response in dual fluorescence viability assay (spheroids^MARY-X [2]): ineffective at producing a ‘complete’ response | Response in dual fluorescence viability assay (spheroids^MARY-X [2]; listed as PTX): little if any activity | IC50 (spheroids^MARY-X [2]): 5.4 µM | Response (deviation from well-circumscribed spheroid edge / spheroid dissolution) (spheroids^MARY-X [1]; 24-hour treatment): virtually ineffective | IC50 (spheroids^MARY-X [1]; 24-hour treatment, ImageJ circularity, read-out: IC50 from dissolution indices dose-response curve): 7.79 µM | IC50 (spheroids^MARY-X [1]; Homo sapiens, 24 h, 24-hour treatment, ImageJ circularity, read-out: IC50 from dissolution indices dose-response curve): 7.8 µM | Response (spheroids^MARY-X [1]; at a 5.0 μM concentration): no to low
